The text below walks through data of patent US11155525B2 (Sanford Burnham Prebys Medical Discovery Institute, priority 2015, dated 2021).

For the assay, the target named is T1, human apelin receptor (Homo sapiens, UniProt P35414).
T1 construct: host or cells: CHO cells
T1 sequence (P35414 1-380): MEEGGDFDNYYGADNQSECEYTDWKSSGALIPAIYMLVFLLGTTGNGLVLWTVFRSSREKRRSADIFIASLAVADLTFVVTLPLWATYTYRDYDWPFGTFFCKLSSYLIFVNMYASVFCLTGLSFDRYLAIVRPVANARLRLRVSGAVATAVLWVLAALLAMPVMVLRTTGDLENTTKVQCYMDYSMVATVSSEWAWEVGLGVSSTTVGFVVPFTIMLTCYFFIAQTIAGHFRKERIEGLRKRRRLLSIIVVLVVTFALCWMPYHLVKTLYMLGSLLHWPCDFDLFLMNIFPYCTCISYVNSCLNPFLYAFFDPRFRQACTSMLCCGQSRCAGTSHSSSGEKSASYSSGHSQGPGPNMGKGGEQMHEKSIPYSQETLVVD
The assay is described as follows: Measurement of apelin receptor agonist activity (cell-based assay determining the amount of intracellular cAMP). The conditions noted are these: CHO cells stably expressing the human apelin receptor, Forskolin 10 μM, 30 minutes, 100% efficacy = [Pyr1]-apelin-13 0.300 μM, concentration giving 50% efficacy. As to the method: Measurement of Apelin Receptor Agonist Activity
The apelin receptor agonist activity of the compound represented by formula (I) or (II) of the present invention was measured by cell-based assay for determining the amount of intracellular cAMP.
CHO cells (DiscoveRx Corp.) stably expressing the human apelin receptor were inoculated to wells of a microtiter plate and cultured overnight at 37° C. under conditions of 5% CO2.
Each test compound and Forskolin were added to the wells at the same time. Specifically, the test compound dissolved in DMSO was diluted with a Forskolin-containing buffer [DMEM/F-12, HEPES, no phenol red (#11039, GIBCO)] to prepare a mixed solution containing the test compound at a final concentration of […] (common ratio: 3, serial dilution: 11), Forskolin at a final concentration of 10 μM, and DMSO at a final concentration of 0.3% v/v, which was then added to the wells (N═4).
After 30 minutes, the cells were lysed, and HitHunter cAMP XS+ Assay #90-0075L (DiscoveRx Corp.) was added to the cell lysate. The mixture was left overnight, and the resulting chemiluminescence signals were then detected using Analyst GT (Molecular Devices LLC.) to determine the amount of cAMP.
The amount of cAMP determined by the addition of a positive control [Pyr1]-apelin-13 (final concentration: 0.300 μM) and Forskolin (final concentration: 10 μM) at the same time was used as an index to define 100% efficacy. The amount of cAMP determined by the addition of Forskolin (final concentration: 10 μM) alone was used as an index to define 0% efficacy.
A dose response curve was prepared from the final concentration of the test compound and the determined amount of cAMP using Sigmaplot 12.0.
On to `COc1cccc(OC)c1-n1c(SCc2cc(=O)n3cc(Cl)ccc3n2)nnc1-c1ccc(C)o1` [Example 3, 7-Chloro-2-({[4-(2,6-dimethoxyphenyl)-5-(5-methylfuran-2-yl)-4H-1,2,4-triazol-3-yl]sulfanyl}methyl)-4H-pyrido[1,2-a]pyrimidin-4-one], for which the midpoint of the response, the EC50, lay at 2 nM.

The compound `COc1cccc(OC)c1-n1c(SCCCCCC(=O)O)nnc1-c1ccc(C)o1` [Example 50, 6-{[4-(2,6-Dimethoxyphenyl)-5-(5-methylfuran-2-yl)-4H-1,2,4-triazol-3-yl]sulfanyl}hexanoic acid] yielded a concentration giving a half-maximal response (EC50) of 1320 nM.

Consider `COc1cccc(OC)c1-n1c(CS(=O)(=O)c2nnc[nH]2)nnc1-c1ccc(C)o1` [Example 69], for which the midpoint of the response, the EC50, lay at 696 nM.

Turning to `COc1cccc(OC)c1-n1c(CC#N)nnc1-c1ccc(C)o1` [Example 73, [4-(2,6-Dimethoxyphenyl)-5-(5-methylfuran-2-yl)-4H-1,2,4-triazol-3-yl]acetonitrile], the concentration for a half-maximal effect (EC50) was 1020 nM.

`COc1cccc(OC)c1-n1c(CCC(=O)O)nnc1-c1ccc(C)o1` [Example 13, 3-[4-(2,6-Dimethoxyphenyl)-5-(5-methylfuran-2-yl)-4H-1,2,4-triazol-3-yl]propanoic acid]: the half-maximal effective concentration (EC50) was 159 nM.

In turn, `COc1cccc(OC)c1-n1c(S)nnc1-c1cccs1` [Example 10, 4-(2,6-Dimethoxyphenyl)-5-(thiophen-2-yl)-4H-1,2,4-triazole-3-thiol] returned a concentration for a half-maximal effect (EC50) of 192 nM.

Compound `COc1cccc(OC)c1-n1c(SCP(=O)(O)O)nnc1-c1ccc(C)o1` [Example 102, ({[4-(2,6-Dimethoxyphenyl)-5-(5-methylfuran-2-yl)-4H-1,2,4-triazol-3-yl]sulfanyl}methyl)phosphonic acid] returned an EC50 of 103 nM.

As for `COc1cccc(OC)c1-n1c(SCc2cccc(C(=O)O)c2)nnc1-c1ccc(C)o1` [Example 80, 3-({[4-(2,6-Dimethoxyphenyl)-5-(5-methylfuran-2-yl)-4H-1,2,4-triazol-3-yl]sulfanyl}methyl)benzoic acid], a half-maximal effect (EC50) was put at 1530 nM.

`CCOC(=O)C(=O)NCc1nnc(-c2ccc(C)o2)n1-c1c(OC)cccc1OC` [Example 97, Ethyl ({[4-(2,6-dimethoxyphenyl)-5-(5-methylfuran-2-yl)-4H-1,2,4-triazol-3-yl]methyl}amino)(oxo)acetate]: the EC50 was determined as 273 nM.

`CCCCc1nnc(SCC(=O)O)n1-c1c(OC)cccc1OC` [Example 29, {[5-Butyl-4-(2,6-dimethoxyphenyl)-4H-1,2,4-triazol-3-yl]sulfanyl}acetic acid]: a half-maximal effect (EC50) was put at 812 nM.

In turn, `COc1cccc(OC)c1-n1c(SCc2cc[nH]c(=O)c2)nnc1-c1ccc(C)o1` [Example 18, 4-({[4-(2,6-Dimethoxyphenyl)-5-(5-methylfuran-2-yl)-4H-1,2,4-triazol-3-yl]sulfanyl}methyl)pyridin-2(1H)-one] yielded an EC50 of 561 nM.

Compound `COC(=O)c1ccccc1CSc1nnc(-c2ccc(C)o2)n1-c1c(OC)cccc1OC` [Example 77, Methyl 2-({[4-(2,6-dimethoxyphenyl)-5-(5-methylfuran-2-yl)-4H-1,2,4-triazol-3-yl]sulfanyl}methyl)benzoate] showed a concentration for a half-maximal effect (EC50) of 557 nM.

The compound `COc1cccc(OC)c1-n1c(SCc2cc(=O)n3cc(C)ccc3n2)nnc1-c1ccc(C)o1` [Example 2, 2-({[4-(2,6-Dimethoxyphenyl)-5-(5-methylfuran-2-yl)-4H-1,2,4-triazol-3-yl]sulfanyl}methyl)-7-methyl-4H-pyrido[1,2-a]pyrimidin-4-one] came in with an EC50 of 1 nM.

The compound `COc1cccc(OC)c1-n1c(SCC(=O)NS(=O)(=O)c2ccccc2)nnc1-c1ccc(C)o1` [Example 95, 2-{[4-(2,6-Dimethoxyphenyl)-5-(5-methylfuran-2-yl)-4H-1,2,4-triazol-3-yl]sulfanyl}-N-(phenylsulfonyl)acetamide] showed an EC50 of 6 nM.

In turn, `COc1cccc(OC)c1-n1c(CNC(=O)C(=O)O)nnc1-c1ccc(C)o1` [Example 98, ({[4-(2,6-Dimethoxyphenyl)-5-(5-methylfuran-2-yl)-4H-1,2,4-triazol-3-yl]methyl}amino)(oxo)acetic acid] registered a concentration for a half-maximal effect (EC50) of 1170 nM.

For orientation: EC50 means the concentration giving half of the maximal effect.
